The test system of series [1] is NCI-N87 (human gastric cancer cells). Nature of the series: Cell-proliferation inhibitory activity (CellTiter-Glo, 3 days). The class given is cell-based. The text has this:
(§1) The experiment was intended to detect in-vitro inhibitory activities of the compounds of the present disclosure on NCI-N87 (human gastric cancer cells), KPL-4 (human breast cancer cells) or MDA-MB-468 (human breast cancer cells).
(§2) Human gastric cancer cells NCI-N87 (ATCC, article number: CRL-5822), human breast cancer cells MDA-MB-468 (Cell Bank of the Committee on Type Culture Collection, Chinese Academy of Sciences, article number: TCHu136) and human breast cancer cells KPL-4 (Nanjing Cobioer Biosciences Co., Ltd., article number: CBP60379) were washed with PBS, then the cells were digested with 0.25% Trypsin-EDTA trypsin for about 3-10 minutes, and the digestion was terminated with a complete cell culture medium. The cells were centrifuged at 1000 rpm for 5 minutes, the supernatant was discarded, and the cells were resuspended with a complete cell culture medium, counted by a cell counter, and adjusted to a required density. Each well was added with 90.0 μL of the cell suspension according to 3000 cells per well, and the cell plate was placed into a 5% CO2 cell incubator at 37° C. to incubate the cells overnight.
(§3) In the experiment, a DMSO control group, a positive control group and a test sample group were provided respectively, and the compound Dxd was used as a positive control compound. The cell plate was taken out of the incubator to observe a cell adhesion state, and after cell adhesion, each well was added with 10.00 μL of the sample (starting from a final concentration 10 μM, diluted 5 times, 9 concentrations), shaken gently, and then placed into an incubator to incubate the cells.
(§4) After incubation for 3 days, each well was added with a CellTiter-Glo™ (Promega, article number: G7572/G7571) working solution according to 100.0 μL/well and oscillated by a constant-temperature oscillator to lyse the cells, and 10 minutes later, the plate was read on a microplate reader.
(§5) A calculation formula of a cell-proliferation inhibition rate was: cell-proliferation inhibition rate=(1−RLUtest sample well/RLUDMSO control well)×100%.
(§6) Data analysis: a graph was made by GraphPad Prism 8.0 software with a Log value of a sample concentration as an abscissa and Inhibition % as an ordinate, and data were subjected to Nonlinear regression (curve fit) analysis to obtain an IC50 value of each test sample.

The subject of series [2] is KPL-4 (human breast cancer cells). The description is as above. In kind it is cell-based. Particulars: KPL-4 cells.
Source text: as §1, §2, §3, §4, §5, §6

In series [3] the test system is MDA-MB-468 (human breast cancer cells). The series is described as above. In kind it is cell-based. Particulars: MDA-MB-468 cells.
Source text: as §1, §2, §3, §4, §5, §6

A short description of series [4]: Metabolism stability test in liver microsomes. The class given is in vitro ADME. The settings on record: human liver microsomes; for CLint scaled / half-life / microsomal CLint: pH 7.4; for microsomal CLint: read-out: CLint(mic). The method, then:
The experiment was intended to detect metabolic stabilities of the compounds in the present disclosure in human liver microsomes.
• Human Liver Microsomes (Corning, Cat No. 452117)
Experimental method: each incubation system contained a phosphate buffer solution (PBS, pH 7.4), a liver microsomal protein, a to-be-tested sample (acetonitrile solution) and NADPH, incubated in water bath at 37° C., and the same volume of cold acetonitrile (comprising an internal standard) was added 0, 5, 15, 30, 45 and 60 minutes after reaction respectively to terminate the reaction. The sample solution was centrifuged, 80 μL of the supernatant was taken and 240 μL of ultrapure water was added, and the remaining amount of the prototype substrate was detected by LC-MS/MS method. The negative control was incubated with a human liver microsome NCF group (without NADPH).

Series [5] in a line: In-vivo pharmacokinetics of compounds in SD rats. Particulars: intravenous; for clearance / half-life / AUC(0-t) at 8 h / Vd: rat, plasma; for AUC(0-t) at 8 h: read-out: AUC0-8 h; for Vd: read-out: Vz. As for the experimental part:
SD rats were taken as test animals to study in-vivo pharmacokinetics behaviors after injection administration of the compounds of the present disclosure to male and female SD rats at dosages of 1 mg/kg and 3 mg/kg.
• Species: male and female SD rats (2 female rats and 2 male rats/group) • Grade: SPF grade • Weight: about 200 g • Source: Hunan SJA Laboratory Animal Co., Ltd.
Male and female SD rats were injected with the test sample solution, and Compound 2 of the example and the Dxd were given in a dosage of 1 mg/kg and a dosage volume of 4 mL/kg. Compound 3 of the example and the Dxd were given in a dosage of 3 mg/kg and a dosage volume of 5 mL/kg.
Preparation of test sample solution: the test sample was dissolved with a solvent (10% DMSO-60% PEG400-30% (20% HP-β-CD-water)), and DMSO, PEG 400 and 20% HP-β-CD-water were added sequentially during preparation.
0 before administration, and 5 minutes, 15 minutes, 0.5 hours, 1 hour, 2 hours, 3 hours, 5 hours and 8 hours after administration.
0.2 mL of blood was collected and placed into an EDTA-2K anticoagulant tube. The anticoagulant tube was turned upside down gently to fully mix the anticoagulant (EDTA-2K) with the blood, and then immediately placed into wet ice, and plasma was centrifuged for separation within 1 hour after blood collection at 4° C. and 6800 g for 6 minutes. After centrifugation, the plasma was separated and stored in an ultra-low-temperature refrigerator as soon as possible until sample analysis.

Read-outs that look alike come from different tables or passages of the source.

For the compound `CC[C@@]1(O)C(=O)OCc2c1cc1n(c2=O)Cc2c-1nc1cc(F)c(C)c3c1c2[C@@H](NC(=O)CO)CC3` [Dxd], the IC50 in series [1] (Homo sapiens, 72 h) was 22.6 nM; in series [2] (Homo sapiens, KPL4, 72 h), 32.3 nM; in series [3] (Homo sapiens, 72 h), 2.71 nM. In series [4], the CLint scaled came out at 12.3 mL/min/kg. The half-life is 1.69 h in series [4] (NADPH, 37° C.); 1.3 h in series [5] (1 mg/kg); 1.96 h in series [5] (3 mg/kg). Moreover, the microsomal CLint in series [4] is 13.6 µL/min/mg. Moreover, the clearance is 69.2 mL/min/kg in series [5] (1 mg/kg) and 65.7 mL/min/kg in series [5] (3 mg/kg). Further, the AUC(0-t) at 8 h turned out to be 240 ng·h/mL in series [5] (1 mg/kg) and 760 ng·h/mL in series [5] (3 mg/kg). For the same compound, the figures for the Vd in series [5] (1 mg/kg) and in series [5] (3 mg/kg) were 7.96 L/kg and 10.9 L/kg, respectively.
In series [1], `C#CCN(CCO)C(=O)N[C@H]1CCc2c(C)c(F)cc3nc4c(c1c23)Cn1c-4cc2c(c1=O)COC(=O)[C@]2(O)CC` [Example 2] showed an IC50 of 11 nM. The compound also returned an IC50 in series [2] of 29.6 nM. This compound also displayed an IC50 in series [3] of 2.41 nM. In addition, in series [4], the “CLint(liver)” value amounted to 20.0 mL/min/kg and the “CLint(mic)” value was found to be 22.2 µL/min/mg. In series [4] (NADPH, 37° C.), the “T1/2” value was 1.04 h. In addition, in series [5] (1 mg/kg), the “AUC0-8 h” value was determined as 77.9 ng·h/mL, the “CL” value was 12700 mL/min/kg, the “T1/2” value is 1.59 h and the “Vz” value came to 29 L/kg.
Turning to `C=CCN(CCO)C(=O)N[C@H]1CCc2c(C)c(F)cc3nc4c(c1c23)Cn1c-4cc2c(c1=O)COC(=O)[C@]2(O)CC` [Example 3, 1-allyl-3-((1S,9S)-9-ethyl-5-fluoro-9-hydroxy-4-methyl-10,13-dioxo-2,3,9,10,13,15-hexahydro-1H,12H-benzo[de]pyrano[3′,4′:6,7]indolizino[1,2-b]quinolin-1-yl)-1-(2-hydroxyethyl)urea], it took 6.39 nM to reach half-maximal inhibition in series [1] (Homo sapiens, 72 h) (IC50). In series [2] (Homo sapiens, KPL4, 72 h), this compound yielded an IC50 of 8.82 nM. The compound further gave an IC50 in series [3] (Homo sapiens, 72 h) of 0.99 nM. In series [4], the CLint scaled is 23.7 mL/min/kg and the microsomal CLint was 26.4 µL/min/mg. In series [4] (NADPH, 37° C.), the half-life came to 0.877 h. Also, in series [5] (3 mg/kg), the clearance is 124 mL/min/kg, the half-life is 1.73 h, the AUC(0-t) at 8 h came out at 405 ng·h/mL and the Vd turned out to be 18.7 L/kg.

The values above are taken from patent US20260284214A1, “EXATECAN DERIVATIVE AND ANTIBODY-DRUG CONJUGATE THEREOF” (priority 2023, published 2026).
